From article PMC9728198, “Characterization of Two Self-Sufficient Monooxygenases, CYP102A15 and CYP102A170, as Long-Chain Fatty Acid Hydroxylases” (Journal of Microbiology and Biotechnology, 2020)
“And” between values parts separate entries of the source, which are not always exact repeats. Equal entries are not always repeated. Where two headings read alike, the source gives them in different places.

Legend:
[1] = molecular target: T1, CYP102A15 (Bacillus sp. (in: firmicutes), UniProt A0A2S1UG59); assay: Spectral substrate binding titration (low-spin to high-spin Soret shift)
Procedure: (§1) The binding affinity was evaluated by spectrometrically analyzing the enzyme binding of each substrate.
(§2) At the beginning, substrates were selected as fatty acids with different chain lengths and the unsaturation extent was tested for enzyme binding capacity. Substrate binding was observed by alternating from low-spin heme iron with a Soret band maximum at 419 nm in the UV-visible spectrum to high-spin heme iron with a Soret band maximum at 389 nm (Figs. 4, S3, and S4).

[2] = molecular target: T2, CYP102A170 (Paenibacillus sp., UniProt A0A2U8SZJ5); assay: NADPH consumption assay and kinetic parameters; details: for Km: read-out: Km (Michaelis–Menten constant)
Procedure: (§3) The NADPH consumption assay was performed at 340 nm. […] The total volume of the reaction was 250 μl. The obtained data were analyzed using GraphPad Prism software, and experiments were replicated at least three times.
(§4) Saturated fatty acids, unsaturated fatty acids and other cyclic compounds were the three main types of substrates used to determine the NADPH oxidation rate. […] The coupling efficiencies, product formation rates (PFR), and Michaelis–Menten constants (Km) of CYP102A15 and CYP102A170 were also investigated.

[3] = molecular target: T2, CYP102A170; assay: Spectral substrate binding titration (low-spin to high-spin Soret shift)
Procedure: as §1, §2

[4] = tested on: CCCCCCCCCCCCCC(=O)O; assay: purified protein, by the assay type
Procedure: as §3, §4

[5] = molecular target: T1, CYP102A15; assay: NADPH consumption assay and kinetic parameters; details: for CE (coupling efficiency) / PFR (product formation rate) / Km: CYP102A15; for Km: read-out: Km (Michaelis–Menten constant)
Procedure: as §3, §4

[6] = molecular target: T2, CYP102A170
Procedure: as §3, §4

[7] = read-out: Kd (dissociation constant), CYP102A15, single-binding model for spectral change ΔA (A389–A419), 1 μM of protein
[8] = read-out: Kd (dissociation constant), CYP102A170, single-binding model for spectral change ΔA (A390–A420), 1 μM of protein

T1 sequence (A0A2S1UG59 1-1047): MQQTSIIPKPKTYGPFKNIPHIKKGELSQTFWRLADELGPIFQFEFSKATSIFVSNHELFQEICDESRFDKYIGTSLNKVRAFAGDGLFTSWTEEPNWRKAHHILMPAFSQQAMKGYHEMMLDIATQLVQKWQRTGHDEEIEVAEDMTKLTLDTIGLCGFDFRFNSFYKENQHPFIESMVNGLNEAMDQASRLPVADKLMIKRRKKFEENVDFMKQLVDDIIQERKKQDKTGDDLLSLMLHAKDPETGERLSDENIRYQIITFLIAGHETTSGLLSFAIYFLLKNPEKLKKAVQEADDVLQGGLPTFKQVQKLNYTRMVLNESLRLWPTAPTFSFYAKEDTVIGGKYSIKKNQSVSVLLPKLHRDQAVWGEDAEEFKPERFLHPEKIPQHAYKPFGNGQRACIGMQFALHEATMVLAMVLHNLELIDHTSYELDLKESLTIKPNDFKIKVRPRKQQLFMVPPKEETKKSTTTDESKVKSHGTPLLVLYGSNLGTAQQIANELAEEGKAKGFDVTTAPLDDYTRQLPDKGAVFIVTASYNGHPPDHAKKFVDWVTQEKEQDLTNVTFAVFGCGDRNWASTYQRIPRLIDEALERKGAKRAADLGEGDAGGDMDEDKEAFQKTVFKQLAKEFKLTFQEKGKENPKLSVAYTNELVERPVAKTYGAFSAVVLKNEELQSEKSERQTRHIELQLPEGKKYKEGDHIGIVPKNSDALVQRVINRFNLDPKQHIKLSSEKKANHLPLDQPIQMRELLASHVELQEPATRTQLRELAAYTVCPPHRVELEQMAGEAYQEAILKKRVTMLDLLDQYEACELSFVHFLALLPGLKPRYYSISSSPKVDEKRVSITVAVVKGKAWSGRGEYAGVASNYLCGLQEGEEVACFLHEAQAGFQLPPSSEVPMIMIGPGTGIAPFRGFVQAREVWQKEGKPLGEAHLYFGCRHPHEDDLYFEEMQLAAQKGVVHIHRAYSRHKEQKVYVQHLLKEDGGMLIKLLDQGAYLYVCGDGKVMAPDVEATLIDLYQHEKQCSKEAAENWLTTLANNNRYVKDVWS
T2 sequence (A0A2U8SZJ5 1-1057 limits assumed): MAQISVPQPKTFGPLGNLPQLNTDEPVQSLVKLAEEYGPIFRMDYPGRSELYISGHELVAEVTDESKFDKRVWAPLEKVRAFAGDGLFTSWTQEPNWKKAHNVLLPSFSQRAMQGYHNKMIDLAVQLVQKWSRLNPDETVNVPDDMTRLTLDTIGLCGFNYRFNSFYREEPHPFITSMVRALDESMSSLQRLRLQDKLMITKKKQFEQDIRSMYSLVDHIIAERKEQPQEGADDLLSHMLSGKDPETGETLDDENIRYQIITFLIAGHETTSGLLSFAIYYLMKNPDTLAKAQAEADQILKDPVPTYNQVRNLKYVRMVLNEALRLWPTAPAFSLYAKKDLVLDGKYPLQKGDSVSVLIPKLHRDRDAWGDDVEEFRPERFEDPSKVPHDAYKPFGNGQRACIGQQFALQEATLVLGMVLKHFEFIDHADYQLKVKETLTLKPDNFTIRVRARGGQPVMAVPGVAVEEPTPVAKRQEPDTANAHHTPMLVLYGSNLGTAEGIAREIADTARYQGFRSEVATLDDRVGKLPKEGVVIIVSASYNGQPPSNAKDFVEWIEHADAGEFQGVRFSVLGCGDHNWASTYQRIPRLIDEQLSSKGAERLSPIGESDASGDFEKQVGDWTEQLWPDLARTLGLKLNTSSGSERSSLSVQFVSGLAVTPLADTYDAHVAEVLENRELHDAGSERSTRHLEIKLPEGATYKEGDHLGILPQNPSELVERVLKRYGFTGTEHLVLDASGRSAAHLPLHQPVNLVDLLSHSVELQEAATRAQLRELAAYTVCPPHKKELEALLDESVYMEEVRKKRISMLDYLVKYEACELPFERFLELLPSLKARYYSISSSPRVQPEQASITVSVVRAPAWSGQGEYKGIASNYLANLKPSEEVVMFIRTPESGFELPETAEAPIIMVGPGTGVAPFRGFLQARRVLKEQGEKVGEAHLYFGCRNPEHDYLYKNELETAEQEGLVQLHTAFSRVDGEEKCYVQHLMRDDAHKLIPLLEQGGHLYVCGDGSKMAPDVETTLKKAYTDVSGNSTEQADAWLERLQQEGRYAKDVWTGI

| Compound | Kd [1] [µM] | Kd [3] [µM] | CE (coupling efficiency) [5] [%] | PFR (product formation rate) [5] [nmol/ nmol-P450/min] | also measured |
| --- | --- | --- | --- | --- | --- |
| CCCCC/C=C\C/C=C\C/C=C\C/C=C\CCCC(=O)O [Arachidonic acid] | 29.8 ± 1.8 |  |  |  |  |
| CCCCCCCCCCCCCCCCC(=O)O [Margaric acid] |  |  |  |  | NADPH consumption rate ([2]; 250 μM NADPH, 200 μM fatty acid, 0.5–1 μM enzyme, 340 nm): 8.2 nmol/nmol-CYP/min; Kd [1, 7]: 17.9 ± 1.21 µM; Kd [3, 8]: 2.83 ± 0.17 µM |
| CCCCCCCCCCCCCCCCCC(=O)O [Stearic acid] |  | 3.37 ± 0.2 |  |  |  |
| CYP102A170 (Paenibacillus sp.) |  |  |  |  | Km ([4]; other: CYP102A170): 17.4 µM and 17.43 ± 1.80 µM |
| CYP102A15 (Bacillus sp. (in: firmicutes)) |  |  |  |  | Km ([4]; other: CYP102A15): 386.10 ± 39.20 µM |
| CCCCCCCC/C=C\CCCCCCCC(=O)O [Oleic acid] | 25.7 ± 2.8 | 2.23 ± 0.09 | 85 | 23.10 ± 5.30 | PFR (product formation rate) [2]: 41.50 ± 1.30 nmol/ nmol-P450/min; Km [2]: 430 ± 98 µM; Km [5]: 39.1 ± 6.9 µM; CE (coupling efficiency) [6]: 51% |
| CCOc1ccc2ccc(=O)oc2c1 [7-ethoxycoumarin] |  |  |  |  | NADPH consumption with cyclic compounds (in words) ([5]; data not shown, sentence does not name the enzyme, b46 names CYP102A15): consumed the NADPH |
| CCCCCCCCCCCCCC(=O)O [Myristic acid] | 14.9 ± 0.68 | 9.89 ± 0.39 | 80 | 35.91 ± 1.20 | CE (coupling efficiency) [2]: 67%; PFR (product formation rate) [2]: 37.52 ± 1.90 nmol/ nmol-P450/min |
| CCCCCCCCCCCC(=O)O [Lauric acid] |  |  | 90 | 7.00 ± 0.10 | PFR (product formation rate) [2]: 31.68 ± 0.70 nmol/ nmol-P450/min; Km [2]: 13.4 ± 1.3 µM; Km [5]: 21.7 ± 3.6 µM; Kd [1, 7]: 7.78 ± 0.7 µM; Kd [3, 8]: 6.46 ± 0.3 µM; CE (coupling efficiency) [6]: 72% |
| CCCCC/C=C\C/C=C\CCCCCCCC(=O)O [Linoleic acid] | 13.9 ± 1.5 | 1.36 ± 0.23 | 68 | 2.70 ± 0.30 | Km [5]: 15.3 ± 4.7 µM |
| CCCCCCCCCCCCCCCC(=O)O [Palmitic acid] | 11 ± 1.3 | 5.01 ± 0.23 |  |  |  |
| CC/C=C\C/C=C\C/C=C\C/C=C\C/C=C\CCCC(=O)O [Eicosapentaenoic acid] | 18.8 ± 3.8 | 1.3 ± 0.08 |  |  |  |
